How the values were obtained:
[1] = target: T1, ATP-dependent translocase ABCB1 (Homo sapiens, UniProt P08183); test: Inhibition of P-glycoprotein (unknown origin) expressed in MDCK cells assessed as reduction of calcein-AM transport after 30 mins by fluorescence assay; assay type: cell-based
[2] = target: T1, ATP-dependent translocase ABCB1; test: Activation of ATPase activity of MDR1 (unknown origin) expressed in MDCK cells assessed as reduction of reduction of ATP level at 100 uM after 2 hrs by luminescence/ATPlite assay; assay type: cell-based; parameters: scale not given: the % may be the effect or the level left
[3] = target: Multidrug resistance-associated protein 1 (Homo sapiens, UniProt P33527); test: Modulation of MRP1 (unknown origin) expressed in MDCK cells at 100 uM; assay type: cell-based
Sequence of Multidrug resistance-associated protein 1 (P33527 whole entry): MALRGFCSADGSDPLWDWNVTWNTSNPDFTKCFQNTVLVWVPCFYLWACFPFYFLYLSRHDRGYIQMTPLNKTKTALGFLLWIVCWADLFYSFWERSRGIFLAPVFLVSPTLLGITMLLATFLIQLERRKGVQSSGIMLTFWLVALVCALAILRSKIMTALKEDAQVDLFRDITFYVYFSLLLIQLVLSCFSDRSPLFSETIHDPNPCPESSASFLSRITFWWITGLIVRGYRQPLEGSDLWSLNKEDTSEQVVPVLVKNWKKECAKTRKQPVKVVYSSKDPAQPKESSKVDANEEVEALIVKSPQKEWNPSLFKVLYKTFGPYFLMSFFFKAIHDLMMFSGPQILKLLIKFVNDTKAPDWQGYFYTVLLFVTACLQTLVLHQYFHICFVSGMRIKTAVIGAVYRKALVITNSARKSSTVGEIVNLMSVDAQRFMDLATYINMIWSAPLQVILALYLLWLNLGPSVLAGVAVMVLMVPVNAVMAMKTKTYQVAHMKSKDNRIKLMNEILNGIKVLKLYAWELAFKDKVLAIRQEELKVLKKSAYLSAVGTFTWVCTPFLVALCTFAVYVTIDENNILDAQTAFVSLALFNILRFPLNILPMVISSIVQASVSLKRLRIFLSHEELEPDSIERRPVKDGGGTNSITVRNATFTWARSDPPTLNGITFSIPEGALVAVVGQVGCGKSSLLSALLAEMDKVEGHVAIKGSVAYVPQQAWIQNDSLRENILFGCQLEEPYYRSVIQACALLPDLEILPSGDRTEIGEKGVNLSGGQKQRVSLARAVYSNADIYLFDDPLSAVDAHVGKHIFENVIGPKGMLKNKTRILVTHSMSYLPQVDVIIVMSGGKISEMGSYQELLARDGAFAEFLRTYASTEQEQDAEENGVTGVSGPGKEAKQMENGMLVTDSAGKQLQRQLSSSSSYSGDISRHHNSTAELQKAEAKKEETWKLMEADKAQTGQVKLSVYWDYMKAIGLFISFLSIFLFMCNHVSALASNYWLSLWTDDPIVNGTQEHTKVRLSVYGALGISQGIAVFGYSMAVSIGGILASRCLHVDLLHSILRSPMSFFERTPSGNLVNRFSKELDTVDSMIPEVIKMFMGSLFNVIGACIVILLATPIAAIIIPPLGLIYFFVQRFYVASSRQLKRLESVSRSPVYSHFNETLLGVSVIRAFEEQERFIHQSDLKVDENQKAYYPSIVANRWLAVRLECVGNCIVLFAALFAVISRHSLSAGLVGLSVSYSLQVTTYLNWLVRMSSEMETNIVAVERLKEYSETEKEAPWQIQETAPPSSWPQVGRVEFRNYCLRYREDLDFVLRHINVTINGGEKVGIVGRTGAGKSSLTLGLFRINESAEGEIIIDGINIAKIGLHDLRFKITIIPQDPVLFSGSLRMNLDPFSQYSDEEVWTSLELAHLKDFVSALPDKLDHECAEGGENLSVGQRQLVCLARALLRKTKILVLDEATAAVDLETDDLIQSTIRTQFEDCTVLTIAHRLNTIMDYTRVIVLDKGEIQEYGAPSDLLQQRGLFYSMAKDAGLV

[4] = Efflux ratio of permeability from basolateral to apical side over apical to basolateral side in human Caco2 cells at 100 uM after 30 mins by UV spectroscopy; assay type: ADME, cell-based; settings: Caco-2
[5] = test system: MDCK; test: Cytotoxicity against MDR1 expressing MDCK cells assessed as cell viability at 1 uM after 24 hrs by MTT assay; assay type: ADME, cell-based, Canis lupus familiaris; settings: dog
[6] = Cytotoxicity against MDR1 expressing MDCK cells assessed as cell viability at 1 uM after 48 hrs by MTT assay; assay type: ADME, cell-based, Canis lupus familiaris; settings: dog, read-out: Activity
[7] = Cytotoxicity against MDR1 expressing MDCK cells assessed as cell viability at 1 uM after 48 hrs by MTT assay in presence of MC18 P-gp inhibitor; assay type: ADME, cell-based, Canis lupus familiaris; settings: dog, with MC18 (P-gp inhibitor), concentration not stated, read-out: Activity

T1 sequence (P08183 whole entry): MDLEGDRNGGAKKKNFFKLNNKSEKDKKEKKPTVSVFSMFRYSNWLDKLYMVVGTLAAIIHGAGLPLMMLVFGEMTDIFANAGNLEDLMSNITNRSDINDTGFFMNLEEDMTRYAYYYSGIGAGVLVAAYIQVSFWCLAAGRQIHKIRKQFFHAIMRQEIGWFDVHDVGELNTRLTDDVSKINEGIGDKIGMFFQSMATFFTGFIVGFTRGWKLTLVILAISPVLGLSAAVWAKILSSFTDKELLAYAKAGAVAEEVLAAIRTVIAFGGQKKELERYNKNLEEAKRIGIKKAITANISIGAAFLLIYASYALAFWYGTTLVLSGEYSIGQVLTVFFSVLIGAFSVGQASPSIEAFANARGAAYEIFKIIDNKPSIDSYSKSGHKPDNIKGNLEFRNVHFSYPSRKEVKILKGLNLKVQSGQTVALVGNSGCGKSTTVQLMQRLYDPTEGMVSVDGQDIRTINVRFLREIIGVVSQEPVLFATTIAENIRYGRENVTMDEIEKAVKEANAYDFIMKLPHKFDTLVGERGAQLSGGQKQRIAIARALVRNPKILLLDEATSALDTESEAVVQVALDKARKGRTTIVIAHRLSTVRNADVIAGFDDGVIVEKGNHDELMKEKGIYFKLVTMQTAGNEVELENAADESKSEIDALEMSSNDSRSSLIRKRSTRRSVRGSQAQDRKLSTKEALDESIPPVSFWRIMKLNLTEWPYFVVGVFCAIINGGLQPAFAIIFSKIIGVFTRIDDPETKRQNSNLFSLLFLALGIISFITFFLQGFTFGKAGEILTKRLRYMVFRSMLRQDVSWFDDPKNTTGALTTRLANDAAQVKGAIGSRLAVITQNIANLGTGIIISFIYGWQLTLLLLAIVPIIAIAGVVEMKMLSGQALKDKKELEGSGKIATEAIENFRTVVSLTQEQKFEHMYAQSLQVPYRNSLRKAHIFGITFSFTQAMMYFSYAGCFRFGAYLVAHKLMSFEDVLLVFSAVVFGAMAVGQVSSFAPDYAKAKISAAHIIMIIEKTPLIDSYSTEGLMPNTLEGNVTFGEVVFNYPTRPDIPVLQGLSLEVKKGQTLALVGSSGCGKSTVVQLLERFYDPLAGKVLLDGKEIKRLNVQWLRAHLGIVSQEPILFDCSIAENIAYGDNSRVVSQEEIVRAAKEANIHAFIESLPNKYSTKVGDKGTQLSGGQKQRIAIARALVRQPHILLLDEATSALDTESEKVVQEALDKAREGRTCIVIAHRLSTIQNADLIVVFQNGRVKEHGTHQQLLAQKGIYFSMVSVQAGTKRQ

Row | EC50 [1] [µM] | Activity [2] | Activity [3] | efflux ratio at 0.5 h, 100 µM [4] | SMILES | Activity [5] | viability at 48 h, 1 µM [6] [%] | viability at 48 h, 1 µM [7] [%]
1 | 0.3 | Active | Not Active | 3.23 | COc1cccc(CCc2ccccc2OCc2cc(OC)c(OC)c(OC)c2)c1OC | – | – | –
2 | 3.1 | Not Active | Not Active | 3.14 | COc1cccc(CCc2ccccc2OCc2cc(OC)c(OC)c(OC)c2)c1 | – | – | –
3 | 2.1 | Not Active | Not Active | 2.77 | COc1ccc(CCc2ccccc2OCc2ccc(OC)c(OC)c2)cc1OC | – | – | –
4 | 3.2 | Active | Not Active | 3.45 | COc1cccc(COc2ccccc2CCc2cc(OC)c(OC)c(OC)c2)c1OC | – | – | –
5 | 0.9 | Active | Not Active | 3.8 | COc1ccc(COc2ccccc2CCc2cc(OC)c(OC)c(OC)c2)cc1OC | – | – | –
6 | 0.0071 | Active | Not Active | 3.96 | COc1cc(CCc2ccccc2OCc2cc(OC)c(OC)c(OC)c2)cc(OC)c1OC | Non-toxic | 40 | 63
7 | 1.3 | Not Active | Not Active | – | COc1cc(COc2ccccc2CCc2cc(OC)c(OC)c(OC)c2)cc(OC)c1 | – | – | –
8 | 32.5 | Active | Not Active | 2.91 | COc1cccc(CCc2ccccc2OCc2ncccn2)c1 | – | – | –
9 | 11.5 | Active | Not Active | 3 | COc1cccc(CCc2ccccc2NCc2ccncc2)c1 | – | – | –
10 | 10.9 | Active | Not Active | 4.1 | COc1cccc(CCc2ccccc2NC(=O)c2cccc(OC)c2)c1 | – | – | –
11 | 43.7 | Active | Not Active | – | COc1cccc(CCc2ccccc2NC(=O)c2cccnc2)c1 | – | – | –
12 | – | 30% | – | 22 | COc1cc2c(cc1OC)CN(CCc1ccc(NC(=O)c3cc(OC)c(OC)cc3NC(=O)c3cnc4ccccc4c3)cc1)CC2 [TARIQUIDAR] | – | – | –

Row | SMILES | EC50 [1] [µM] | Activity [2] | Activity [3] | efflux ratio at 0.5 h, 100 µM [4] | Activity [5] | viability at 48 h, 1 µM [6] [%] | viability at 48 h, 1 µM [7] [%]
13 | Clc1ccc(COc2ccccc2CCc2ccccc2)c(Cl)c1 | > 100 | – | Not Active | – | – | – | –
14 | COc1cccc(CCc2ccccc2OCc2ccc3c(c2)OCO3)c1 | > 100 | Active | Not Active | – | – | – | –
15 | COc1cccc(CCc2ccccc2OCc2cccs2)c1 | > 100 | Active | Not Active | – | – | – | –
